# Laboratory results reported in paper PMC11661381, “Covalent-fragment screening identifies selective inhibitors of multiple Staphylococcus aureus serine hydrolases important for growth and biofilm formation” (Research Square, 2024).
# T1: rFphH (Staphylococcus aureus, UniProt A0A0H2XJL0)
# T1 construct: otherwise full-length FphE (Uniprot ID Q2FDS6) and FphH (A0A0H2XJL0) proteins; His6 (3C-cleavable, pETNKI-his-3C-LIC vector) (N); made in house; E. coli is inferred from the pET28a-type vector, IPTG induction and LB/kanamycin
# T1 sequence (A0A0H2XJL0 1-246): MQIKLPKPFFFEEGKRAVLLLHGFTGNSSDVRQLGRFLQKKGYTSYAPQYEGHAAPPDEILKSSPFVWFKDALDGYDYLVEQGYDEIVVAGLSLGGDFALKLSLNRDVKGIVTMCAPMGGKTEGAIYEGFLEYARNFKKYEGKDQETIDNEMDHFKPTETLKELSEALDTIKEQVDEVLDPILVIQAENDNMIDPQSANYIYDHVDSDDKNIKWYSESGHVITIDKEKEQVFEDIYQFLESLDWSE
# T2: recombinant FphE (rFphE) (Staphylococcus aureus, UniProt Q2FDS6)
# T2 construct: otherwise full-length FphE (Uniprot ID Q2FDS6) and FphH (A0A0H2XJL0) proteins; His6 (3C-cleavable, pETNKI-his-3C-LIC vector) (N); made in house; E. coli is inferred from the pET28a-type vector, IPTG induction and LB/kanamycin
# T2 sequence (Q2FDS6 1-276): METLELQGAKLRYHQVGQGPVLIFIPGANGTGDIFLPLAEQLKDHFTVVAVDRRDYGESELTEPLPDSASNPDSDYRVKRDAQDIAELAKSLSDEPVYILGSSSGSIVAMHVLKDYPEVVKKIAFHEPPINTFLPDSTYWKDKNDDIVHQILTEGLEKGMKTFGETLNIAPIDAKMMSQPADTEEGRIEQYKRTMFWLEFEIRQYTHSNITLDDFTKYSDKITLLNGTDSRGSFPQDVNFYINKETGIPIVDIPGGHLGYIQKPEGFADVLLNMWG
# T3: rFphE (Staphylococcus aureus, UniProt Q2FDS6)
# T3 construct: otherwise full-length FphE (Uniprot ID Q2FDS6) and FphH (A0A0H2XJL0) proteins; His6 (3C-cleavable, pETNKI-his-3C-LIC vector) (N); made in house; E. coli is inferred from the pET28a-type vector, IPTG induction and LB/kanamycin
# T3 sequence (Q2FDS6 1-276): T2 sequence (Q2FDS6 1-276)
# T4: recombinant FphH (rFphH) (Staphylococcus aureus, UniProt A0A0H2XJL0)
# T4 sequence (A0A0H2XJL0 1-246): T1 sequence (A0A0H2XJL0 1-246)
# B1: FphE (fluorophosphonate-binding hydrolase E), S. aureus USA300, crystallography construct (enzyme)
# chain: GPGMETLELQGAKLRYHQVGQGPVLIFIPGANGTGDIFLPLAEQLKDHFTVVAVDRRDYGESELTEPLPDSASNPDSDYRVKRDAQDIAELAKSLSDEPVYILGSSSGSIVAMHVLKDYPEVVKKIAFHEPPINTFLPDSTYWKDKNDDIVHQILTEGLEKGMKTFGETLNIAPIDAKMMSQPADTEEGRIEQYKRTMFWLEFEIRQYTHSNITLDDFTKYSDKITLLNGTDSRGSFPQDVNFYINKETGIPIVDIPGGHLGYIQKPEGFADVLLNMWG
# notes: also called rFphE; source: E. coli expression from pet28a-(pETNKI-his-3C-LIC-kan), purified (Ni-NTA, size exclusion); tag cleaved with 3C protease
# Experiments:
# [1] = target: T1, rFphH; assay: Intact protein LC-MS of rFphH with inhibitors; format: binding; details: 1 μM rFphH, 10 μM probe, 1hr
# Protocol: Next, 10 μL of the labeled sample was injected and analyzed by LC-MS. […] Protein labeling efficiency was quantified by UV. The acquired mass of protein was deconvoluted using the deconvolution software in Agilent Bioanalysis Software package.
# [2] = system: Fph enzymes in live S. aureus cells (USA300); assay: Competition of FP-alkyne labeling in live S. aureus cells; format: cell-based, Staphylococcus aureus; details: 100 μM compound, live S. aureus cells
# Protocol: One colony of each of S. aureus wild-type and transposon mutants fphB::Tn, fphE::Tn and fphH::Tn picked from growth on a Tryptic soya agar plate were inoculated in 5 mL of Tryptic soya broth (TSB). The overnight bacterial cultures were spun down at 5,000 g for 10 min and pellet was collected. The pellets were washed twice in 1X PBS buffer and resuspended in the same buffer. Cells were first preincubated with the indicated concentrations of inhibitors for 2hr at 37°C. The cells were washed twice with 1X PBS buffer. The resuspended pellets were incubated with Fluorophosphonate-alkyne (FP-alkyne) for 30 min at 37°C. Cells were washed again twice with 1X PBS buffer and resuspended in with 1X PBS and 0.1% Triton–X and lysed by beat beating at 4°C. Next, lysed cells (20 μL) were mixed with 2.16 μL of freshly prepared click mix (0.5 μL of 50 mM CuSO4 in H2O, 1.16 μL of 100 mM BTTAA in DMSO, and 0.5 μL of N3-Cy5 in DMSO) and 1.16 μL of 300 mM sodium ascorbate solution in H2O and incubated at 37 °C for 30 min. Next step, 20 μL of 4X SDS loading buffer was added in each sample and boiled at 100 °C for 10 min. The processed samples were allowed to cool and analyzed by SDS-PAGE (12%) running at 120 V in an electrophoresis chamber. Cy5 fluorescence was imaged using the Cy5 channel on a Typhoon 9410 Imager (Amersham Biosciences).
# [3] = target: T2, recombinant FphE (rFphE); assay: biochemical; details: from dose response IC50 values
# Protocol: (§1) Fluorogenic substrate assays were performed as previously described[9],[11],[12]. […] Turnover rates in the linear phase of the reaction (10–20 min) were calculated using GraphPad prism 10.0 software as RFU/min. Rates were normalized by subtracting background hydrolysis rates measured for each substrate in reaction buffer in the absence of protein.
# (§2) For the screening, 8 μL of enzyme solution was pipetted into the assay plates containing 50 nL compound and allowed to incubate for one hour at room temperature. […] For four-point dose response plates, 2.5, 10, 25, 50 nL droplets were transferred to get […], 10, 25, 50 μM compound concentrations in the 384 well plates again using an Echo acoustic liquid handler as above. […] Calculations were done with GraphPad Prism 10.0 software. […] IC50 values were derived from the fitted curve.
# [4] = target: T1, rFphH; assay: FP-Cy5 active site labeling of recombinant protein, rFphH; format: binding; details: 500 nM rFphH
# Protocol: For activity-based protein labeling experiments, 500 nM of rFphB, rFphE and rFphH in 1X PBS and 0.1% Triton–X were preincubated with different concentrations of inhibitors or DMSO for 2hr at room temperature, followed by adding 300 nM of fluorophosphonate (FP) alkyne and incubated for 30 min at room temperature. Next, 20 μL of the reaction volume were mixed with 2.16 μL of freshly prepared click mix (0.5 μL of 50 mM CuSO4 in H2O, 1.16 μL of 100 mM BTTAA in DMSO, and 0.5 μL of N3-Cy5 in DMSO) and 1.16 μL of 300 mM sodium ascorbate solution in H2O. Samples were incubated at 37°C for 30 min, boiled in SDS loading buffer and analyzed by SDS–PAGE. Cy5 fluorescence was imaged using the Cy5 channel on a Typhoon 9410 Imager (Amersham Biosciences).
# [5] = target: T3, rFphE; assay: Mass spectrometry of rFphE labeling; format: binding
# [6] = system: Fph enzymes in S. aureus USA300 WT lysates; assay: Competition of FP labeling in S. aureus lysates; format: binding, Staphylococcus aureus; details: 120 min preincubation
# Protocol: Figure 3 Biochemical characterization of fluorosulfate-based fragments. […] (d) LC/MS profiles for X13d and X13e in LC/MS buffer or aqueous buffer. (e) Proposed reaction mechanism of X13d or X13e binding to rFphH, Fluorescence SDS-PAGE image of rFphH for direct visualization of labelling by clickable probes X13d and X13e with Cy5-azide. (f) Native mass spectrometry (MS) characterization of 1μM rFphH alone or after 1hr incubation with 10 μM X13d or X13e. […] (h) Competition of FP-Cy5 labeling of S. aureus lysates. […] The indicated Fph transposon mutants (::Tn) lysates are included to highlight the location of the three enzymes in the gel. All data shown are representative of three independent experiments.
# Cells were then lysed and click labeled with sulfo-Cy5 azide and analyzed by SDS-PAGE. […] We hypothesized this lack of competition may have been due to the inability to permeate the cell membranes. For bacteria, the permeability is influenced by the polarity of the compound, measured by clogP. Drugs targeting Gram-negative bacteria show higher polarities (clogP = − 0.1) compared to those targeting Gram-positive bacteria (clogP = 2.1)[32],[33]. […] Overall, this electrophile has a unique mechanism of binding with the active site serine of FphH and may be a valuable new electrophile class to target other serine hydrolases.
# [7] = Stability in aqueous assay buffer by LC/MS; format: physicochemical
# Text: This shift was not observed in the acidic mass spectrometry buffer (0.1% formic acid (FA) in H2O as buffer A, and 0.1% FA in acetonitrile (ACN) as buffer B; SI details). We therefore reasoned that the molecule likely reacts to release the fluoride under neutral pH conditions (Fig. 3c). Given the presence of the amide nitrogen in close proximity to the sulfur (VI) atom we reasoned that it likely produces a saccharine-like structure by a cyclization to release the fluorine atom[31]. This would create a molecule that could then be ring-opened by attack by the active site serine on the sulfur center, resulting in irreversible protein modification. […] We were able to purify the non-cyclized OSF-fragment, X13d under acidic conditions, as well as the cyclized OSF-fragment, X13e. We observed a clear mass difference of 20 Da between the two purified species by LC/MS analysis.
# [8] = target: T5, recombinant FphB (rFphB) (Staphylococcus aureus, UniProt A0A0H2XJG5); format: biochemical; details: enzyme inhibition assay
# T5 construct: made in house
# T5 sequence (A0A0H2XJG5 entry or part of it): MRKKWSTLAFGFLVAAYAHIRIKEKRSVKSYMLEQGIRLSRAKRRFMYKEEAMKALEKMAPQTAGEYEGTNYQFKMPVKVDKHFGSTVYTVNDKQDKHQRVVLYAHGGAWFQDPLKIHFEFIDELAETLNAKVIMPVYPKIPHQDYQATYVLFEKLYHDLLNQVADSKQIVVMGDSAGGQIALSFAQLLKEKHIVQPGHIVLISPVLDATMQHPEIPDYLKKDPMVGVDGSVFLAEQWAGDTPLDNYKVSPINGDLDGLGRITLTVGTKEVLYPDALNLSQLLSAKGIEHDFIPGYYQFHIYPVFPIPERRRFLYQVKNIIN
# Protocol: as §1, §2
# [9] = target: T4, recombinant FphH (rFphH); assay: biochemical; details: for selectivity in the dose-dependent response assay (in words): three Fphs tested
# Protocol: as §1, §2
# [10] = target: the molecule itself; assay: crystal structure
molecule,measurement,setting,value
C#Cc1cnccc1N1C(=O)c2ccccc2OS1(=O)=O [X13e],mass shift of rFphH (in words),[1],produced the expected mass shift
COc1cc(OC)cc(B(O)O)c1 [W41],competition of FP labeling in live cells (in words),[2],unable to block FP labeling of any of the Fph enzymes
same,selectivity for rFphE over rFphH,[3],~100 fold
Cc1ccc(OS(=O)(=O)F)c(C(=O)Nc2ccncc2)c1 [X13],competition of FP-Cy5 labeling of rFphH (in words),[4],dose-dependent competition of protein labeling
same,labeling of rFphE by mass-spectrometry (in words),[5],No labeling
same,competition of FP labeling in lysates (in words),[6],dose-dependently competed with FP labeling of rFphH as well as rFphE at higher concentrations
same,mass shift upon incubation in aqueous buffer,"[7]; 1X Phosphate buffer saline pH 7.5, 60 min, absence of protein",20 Da
same,competition of FP labeling in live cells (in words),[2],Neither of the compounds competed with FP labeling in intact cells
same,inhibition of rFphB (in words),[8],no activity against rFphB
same,selectivity (higher potency) for rFphH over rFphE,[9]; from dose response IC50 values,~100 fold
O=C(Nc1ccncc1)c1ccccc1OS(=O)(=O)F [X13a],competition of FP-Cy5 labeling of rFphH (in words),[4],dose-dependent competition of protein labeling
same,competition of FP labeling in lysates (in words),[6],dose-dependently competed with FP labeling of rFphH as well as rFphE at higher concentrations
same,competition of FP labeling in live cells (in words),[2],Neither of the compounds competed with FP labeling in intact cells
C#Cc1cnccc1NC(=O)c1ccccc1OS(=O)(=O)F [X13d],conversion in pH 7.5 buffer (in words),[7]; pH 7.5 buffer,rapidly converted to the cyclic version
same,mass shift of rFphH (in words),[1],produced the expected mass shift
CC1(C)OB(c2cnc3c(c2)CC(=O)N3)OC1(C)C [AF22],selectivity in the dose-dependent response assay (in words),[9],quite selective for rFphH
CN1CCCN(C(=O)c2ccc(S(=O)(=O)F)cc2)c2ccccc21 [L17],IC50,"[9]; IC50 (μM) FphH, 5 nM rFphH, 1 hr preincubation, 0.01–50 μM, N.D. = IC50 could not be determined due to incomplete inhibition at the highest concentration tested",3 µM
Cc1cc(B2OC(C)(C)C(C)(C)O2)ccc1S(N)(=O)=O [Q41],selectivity in the dose-dependent response assay (in words),[9],quite selective for rFphH
B1,binding result,[10],binds
